The series can be described thus: photoluminescence quantum yield (fraction); solvent given as SMILES.

In the case of `COC(=O)C(NC(=O)OC(C)(C)C)c1ccc2oc(-c3cc(OC)c(OC)cc3OC)nc2c1` (stereo not given), the photoluminescence quantum yield reads like this: (in CC1CCCCC1) 0.58; (in CC#N) 0.79; (in CO) 0.81. For `CCCCCCC1(CCCCCC)c2ccccc2-c2ccc(-c3ccc(-c4cc(-c5ccccn5)nc(-c5ccccn5)c4)cc3)cc21`, for the setting “in ClCCl”, the photoluminescence quantum yield was determined as 0.92. As to `CC1=CC(C)=[N+]2C1=C(c1ccc(-c3ccc(OS(=O)(=O)c4ccc([N+](=O)[O-])cc4[N+](=O)[O-])cc3)s1)c1c(C)cc(C)n1[B-]2(F)F`, the photoluminescence quantum yield (in Cc1ccccc1) is 0.066.

Consider `CN(C)c1ccc(/C=C/c2nc3c(ccc4ccccc43)s2)cc1`, for which the photoluminescence quantum yield is, setting by setting: (in C1CCCCC1) 0.012; (in CC#N) 0.008. With `C/C=C/C=C/C1=NC(=C\c2ccc([O-])cc2)/C(=O)N1C`, the photoluminescence quantum yield (in O) turned out to be 0.0008.

`CC[N+](CC)=c1ccc2c(-c3ccccc3C(=O)O)c3oc4cc(N)ccc4c3oc-2c1` came in with a photoluminescence quantum yield (in CCO) of 0.778, a photoluminescence quantum yield (in ClCCl) of 0.726 and a photoluminescence quantum yield (in O) of 0.126.

In the case of `CCCCCCCCCCCCOc1ccc(C#Cc2ccc(C#Cc3ccc(OCCCCCCCCCCCC)c(OCCCCCCCCCCCC)c3)c3nc4c5ccccc5c5ccccc5c4nc23)cc1OCCCCCCCCCCCC`, the photoluminescence quantum yield by setting is: (in C1CCOC1) 0.23; (in Cc1ccccc1) 0.19; (in ClCCl) 0.26. Consider `c1ccc(-c2nnc(-c3ccc(-n4c5ccccc5c5ccccc54)cc3)o2)cc1`, for which the photoluminescence quantum yield (in Cc1ccccc1) was 0.57. For the setting “in ClC(Cl)Cl”, `FC(F)(F)c1ccc2oc3nc4oc5ccc(N6c7ccccc7Oc7ccccc76)cc5c4cc3c2c1` registered a photoluminescence quantum yield of 0.055. With `COCCOCCOCCOCC(COCCOCCOCCOC)Oc1cc(/C=C/c2ccc(/C=C(\C#N)c3ccccn3)cc2)c(OC(COCCOCCOCCOC)COCCOCCOCCOC)cc1/C=C/c1ccc(/C=C(\C#N)c2ccccn2)cc1`, the photoluminescence quantum yield (in ClCCl) came out at 0.64. Consider `CC(C)(C)c1ccc(C2=C(c3ccc(C(C)(C)C)cc3)[Si](c3ccccc3)(c3ccccc3)c3ccccc32)cc1`, for which, where the note is “in C1CCOC1”, the photoluminescence quantum yield stood at 0.015. Same read-out and setting: in the case of `Cc1cc(C)c([B-]2(c3c(C)cc(C)cc3C)[O+]=P(c3ccccc3)(c3ccccc3)c3cc(-c4ccccc4)sc3-c3sc(-c4ccccc4)cc32)c(C)c1` it was 0.58. On to `CC(C)[Si](C#Cc1c2cc3ccccc3cc2c(C#Cc2ccccc2)c2cc3ccccc3cc12)(C(C)C)C(C)C`, for which, for the setting “in ClCCl”, the photoluminescence quantum yield stood at 0.12. For the setting “in Cc1ccccc1”, `Cc1ccc2c(c1)c1cc(C)ccc1n2-c1c(C#N)c(-n2c3ccc(C)cc3c3cc(C)ccc32)c(-n2c3ccc(C)cc3c3cc(C)ccc32)c(C#N)c1-n1c2ccc(C)cc2c2cc(C)ccc21` had a photoluminescence quantum yield of 0.474. In turn, `O=P1(c2ccccc2)C(c2ccc(C3=Cc4ccccc4P3(=O)c3ccccc3)cc2)=Cc2ccccc21` (stereo not given) came in with a photoluminescence quantum yield (in C1CCOC1) of 0.29. `CCN(CC)c1ccc2cc(/C=C3\CCCc4c3[o+]c3cc(N(CC)CC)ccc3c4-c3ccccc3C(=O)O)c(=O)oc2c1` had a photoluminescence quantum yield (in ClCCl) of 0.07. Take `COC(=O)c1ccc(/C=C2\N=C(c3ccc(OC)c(OC)c3)NC2=O)cc1`: for the setting “in C1COCCO1”, the photoluminescence quantum yield is 0.295. Turning to `Cc1ccc(-n2c(C)ccc2C)cc1`, the photoluminescence quantum yield turned out to be 0.013 (in CC#N) and 0.006 (in CCCCCC). Where the note is “in O”, `CN(C)c1ccc2[c](c1)[Sn]([CH3])([CH3])[C]1=CC(=[N+](C)C)C=CC1=C2` registered a photoluminescence quantum yield of 0.43. Consider `CCCCc1ccc2ccc3cccc4ccc1c2c34`, for which the photoluminescence quantum yield (in CCCCCC) was 0.35, the photoluminescence quantum yield (in CO) is 0.31 and the photoluminescence quantum yield (in ClCCl) came to 0.41. `COc1ccc(C2=C(c3ccc(OC)cc3)C(C)(C)c3ccc4ccccc4c32)cc1` gave a photoluminescence quantum yield (in C1CCCCC1) of 0.11. Where the note is “in CC#N”, `Cc1cc2nc3c(=O)[nH]c(=O)nc-3n(C)c2cc1C` displayed a photoluminescence quantum yield of 0.16.

Consider `COc1ccc(/C=C/c2nc(N3CCOCC3)c3c([n+]2[O-])CCCC3)cc1`, for which the photoluminescence quantum yield (in ClCCl) turned out to be 0.12.

For the compound `Cc1c(C)n2c(COC(=O)c3ccccc3I)c(C)c(=O)n2c1=O`, the photoluminescence quantum yield (in CCO) amounted to 0.634. `CC(C)(C)c1ccc(C2=C(c3ccc(N(c4ccccc4)c4ccccc4)cc3)S(=O)(=O)c3c2sc(-c2ccc(N(c4ccccc4)c4ccccc4)cc2)c3-c2ccc(C(C)(C)C)cc2)cc1` gave a photoluminescence quantum yield (in C1CCOC1) of 0.442. Turning to `F[B-]1(F)OC(c2ccc3ccccc3c2)=CC(c2ccc3ccccc3c2)=[O+]1`, the photoluminescence quantum yield is, setting by setting: (in CC#N) 0.7; (in ClC(Cl)(Cl)Cl) 0.9. For the compound `CCC1=C(C)C(=O)n2c1cc1c(CCC(=O)OC)c(C)c(C)n1c2=O`, the photoluminescence quantum yield came out at 0.82 (in CO), 1 (in CS(C)=O), 0.95 (in ClC(Cl)Cl) and 1 (in c1ccccc1).

Where the note is “in C1CCOC1”, `CCN(CC)c1ccc(C(=C(c2ccc(B(c3c(C)cc(C)cc3C)c3c(C)cc(C)cc3C)cc2)c2ccc(B(c3c(C)cc(C)cc3C)c3c(C)cc(C)cc3C)cc2)c2ccc(N(CC)CC)cc2)cc1` gave a photoluminescence quantum yield of 0.29.

Take `CC1=CC(C)=[N+]2C1=C(c1c3ccccc3c(-c3ccccc3)c3ccccc13)c1c(C)cc(C)n1[B-]2(F)F`: the photoluminescence quantum yield reads like this: (in CC#N) 0.007; (in CCCCCC) 0.9; (in CCO) 0.02; (in CN(C)C=O) 0.01; (in Cc1ccccc1) 0.79; (in ClCCl) 0.024. Compound `CCOC(=O)c1ccc2c(c1)[nH]c1c3ccc(C(=O)OCC)cc3[nH]c21` registered a photoluminescence quantum yield (in CCCO) of 0.57.

With `CCC(CC)COC1=CC2=C3c4cc(OCC(CC)CC)c(-c5cccs5)n4[B-](F)(F)[n+]4c3n(c3cc(C(C)(C)C)ccc34)[B-](F)(F)[N+]2=C1c1cccs1`, the photoluminescence quantum yield reads like this: (in C1CCOC1) 0.07; (in ClCCl) 0.07. Under “in ClCCl”, `C(S/C=C/c1ccc(/C=C/SC=C2CCCC2)cc1)=C1CCCC1` showed a photoluminescence quantum yield of 0.021.

`CC(C)[Si]1(C(C)C)c2ccccc2-c2ccc(N(C)C)cc21`: the photoluminescence quantum yield (in C1CCCCC1) was 0.26; the photoluminescence quantum yield (in CC#N) is 0.28; the photoluminescence quantum yield (in CCO) was 0.11; the photoluminescence quantum yield (in CCOCC) was 0.22; the photoluminescence quantum yield (in CS(C)=O) was 0.12; the photoluminescence quantum yield (in ClCCl) came out at 0.13. This compound also yielded a photoluminescence quantum yield (in c1ccccc1) of 0.22. With `O=C1c2cccc3c(-n4c5ccccc5c5ccccc54)ccc(c23)C(=O)N1c1ccccc1`, the photoluminescence quantum yield (in C1CCOC1) is 0.032, the photoluminescence quantum yield (in CCCCCC) was found to be 0.887, the photoluminescence quantum yield (in ClC(Cl)Cl) amounted to 0.198 and the photoluminescence quantum yield (in ClCCl) came to 0.032.

Regarding `Cc1ccc(-n2c3ccccc3c3cc(-c4ccc5[n+](c4)[B-](F)(F)n4c-5nc5c6ccccc6c6ccccc6c54)ccc32)cc1`, the photoluminescence quantum yield (in ClC(Cl)Cl) is 0.957. Compound `CCCCCCc1ccc(-n2c3c(c4c2c2c(n4-c4ccc(CCCCCC)cc4)-c4cccc(OC)c4NB2c2ccccc2)B(c2ccccc2)Nc2c(OC)cccc2-3)cc1` yielded a photoluminescence quantum yield (in Cc1ccccc1) of 0.62. `CCCCCC(=O)c1cccc2sc3c(c12)P(=O)(c1ccccc1)c1ccccc1-3` (stereo not given): the photoluminescence quantum yield (in ClCCl) worked out at 0.13. Consider `CC(C)(C)c1ccc(C2=C(c3ccc(C(C)(C)C)cc3)C(c3ccc(C(C)(C)C)cc3)=[N+]3C2=C(c2ccccc2)c2c(-c4ccc(C(C)(C)C)cc4)c(-c4ccc(C(C)(C)C)cc4)c(-c4ccc(C(C)(C)C)cc4)n2[B-]3(F)F)cc1`, for which the photoluminescence quantum yield by setting is: (in C1CCCCC1) 0.32; (in C1CCOC1) 0.3; (in CC#N) 0.25; (in Cc1ccccc1) 0.57; (in ClCCl) 0.45.

In turn, `Cc1cc2c(o1)c(Br)cc1c(C)cc(=O)oc12` showed a photoluminescence quantum yield (in C1CCCCC1) of 0.0004; a photoluminescence quantum yield (in C1COCCO1) of 0.002; a photoluminescence quantum yield (in CC#N) of 0.0014; a photoluminescence quantum yield (in CCO) of 0.005; a photoluminescence quantum yield (in OCC(F)(F)F) of 0.005.

In the case of `COc1ccc(-c2cc(-c3ccccc3)nn2C)cc1`, the photoluminescence quantum yield (in ClCCl) came to 0.21. On the same count and under the same terms, in the case of `COC(=O)C1=C(C(=O)OC)C2(c3ccccc3-c3ccc([N+](=O)[O-])cc32)C2(/C=C/c3ccccc3)c3cc(OC)c(OC)cc3CCN12` (stereo not given) it was 0.00069. The compound `O=C1CCCC2=C1C(c1ccc([N+](=O)[O-])cc1)c1c(c3ccccc3oc1=O)N2` (stereo not given) came in with a photoluminescence quantum yield (in CS(C)=O) of 0.014. With `c1ccc(-c2csc(-c3ccncc3)n2)cc1`, the photoluminescence quantum yield runs as follows: (in CC#N) 0.558; (in CCO) 0.048; (in CN(C)C=O) 0.041; (in CS(C)=O) 0; (in ClCCl) 0.28.

For `Cc1ccc2c(c1)C1(c3ccccc3Oc3ccccc31)c1cc(C)ccc1N2c1ccc(-c2nc(-c3ccccc3)cc(-c3ccccc3)n2)cc1`, the photoluminescence quantum yield (in O=P(c1ccccc1)(c1ccccc1)c1ccc2oc3ccc(P(=O)(c4ccccc4)c4ccccc4)cc3c2c1) stood at 0.69.

Consider `CCC1(CC)c2cc(B(c3c(C)cc(C)cc3C)c3c(C)cc(C)cc3C)ccc2-c2c1c1c(c3c2C(CC)(CC)c2cc(N(c4ccccc4)c4ccccc4)ccc2-3)C(CC)(CC)c2cc(N(c3ccccc3)c3ccccc3)ccc2-1`, for which the photoluminescence quantum yield (in C1CCOC1) is 0.21. For the compound `CCC1=C(C)c2cc3c(OC)cc(OC)cc3c(=O)n2C1=O`, the photoluminescence quantum yield amounted to 0.54 (in CC#N), 0.44 (in CO), 0.6 (in CS(C)=O) and 0.6 (in ClC(Cl)Cl).

Turning to `CC[N+]1(CC)CN2C(=N1)C(C(=O)O)=Cc1c2ccc2ccccc12`, the photoluminescence quantum yield (in O) came out at 0.711. `c1ccc(-n2c3ccccc3c3ccccc32)cc1` had a photoluminescence quantum yield (in CCO) of 0.46. `CC(C)(C)c1ccc2c(c1)c1cc(C(C)(C)C)ccc1n2-c1ccc(C#Cc2ccccc2)cc1` displayed a photoluminescence quantum yield (in ClCCl) of 0.8. `CCOc1ccc2c(-c3nc(-c4ccccc4Cl)no3)cc(=O)oc2c1` returned a photoluminescence quantum yield (in CCO) of 0.52 and a photoluminescence quantum yield (in ClC(Cl)Cl) of 0.26.

For the origin of these results see the Deep4Chem optical property database.
